From US10323022B2, “Pyrrolidinyl urea, pyrrolidinyl thiourea and pyrrolidinyl guanidine compounds as TrkA kinase inhibitors” (Array BioPharma Inc., priority 2011, dated 2019) come the findings set out here.

The target in this assay is TrkA (Homo sapiens (Human), UniProt P04629). The experiment in a line: TrkA Omnia Assay. The class given is biochemical. As to conditions: averaged IC50; 20 nM enzyme, 500 μM ATP, 10 μM peptide substrate. A digest of the protocol:
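Recombinant TrkA (20 nM) preincubated 10 min at ambient temperature with compound, then Omnia Tyr Peptide #4 (10 μM) and ATP (500 μM) added in 25 mM MOPS pH 7.5, 5 mM MgCl2, 0.005% Triton X-100. Fluorescence (ex 360/em 485 nm) followed continuously for 70 min; IC50 from initial rates by 4- or 5-parameter logistic fit.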

Broadly, the pIC50 is the IC50 on a negative log10 scale, so that one unit is a factor of ten. Lower therefore signals a large IC50.

SMILES strings stand for the structures. pIC50: −log10 of the molar value.

Sequence of TrkA (P04629 33-796): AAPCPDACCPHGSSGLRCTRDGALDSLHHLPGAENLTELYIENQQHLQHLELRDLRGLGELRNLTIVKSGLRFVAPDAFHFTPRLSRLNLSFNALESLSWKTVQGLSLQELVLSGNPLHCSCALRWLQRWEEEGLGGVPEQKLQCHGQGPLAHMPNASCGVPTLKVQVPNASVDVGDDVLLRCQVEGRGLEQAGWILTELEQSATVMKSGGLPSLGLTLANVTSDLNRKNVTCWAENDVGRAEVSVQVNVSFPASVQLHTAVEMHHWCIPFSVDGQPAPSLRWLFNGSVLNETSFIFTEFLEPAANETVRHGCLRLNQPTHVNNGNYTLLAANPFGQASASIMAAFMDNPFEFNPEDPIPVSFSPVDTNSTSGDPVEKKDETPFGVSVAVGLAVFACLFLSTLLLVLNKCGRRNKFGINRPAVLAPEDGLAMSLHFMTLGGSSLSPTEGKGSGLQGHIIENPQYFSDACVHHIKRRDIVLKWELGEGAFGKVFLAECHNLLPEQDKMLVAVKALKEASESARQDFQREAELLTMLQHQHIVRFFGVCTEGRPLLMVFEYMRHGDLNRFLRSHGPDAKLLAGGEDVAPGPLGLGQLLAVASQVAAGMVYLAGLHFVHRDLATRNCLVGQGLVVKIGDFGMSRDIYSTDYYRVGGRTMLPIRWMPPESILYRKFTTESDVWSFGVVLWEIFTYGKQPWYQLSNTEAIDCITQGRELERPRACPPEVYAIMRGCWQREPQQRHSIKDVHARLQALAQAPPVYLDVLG

`CCOc1nn(-c2ccccc2)c(NC(=O)N[C@@H]2CN([C@@H](COC)C(F)(F)F)C[C@H]2c2ccc(F)c(F)c2)c1C` [Example 276, 1-((3S,4R)-4-(3,4-difluorophenyl)-1-((S)-1,1,1-trifluoro-3-methoxypropan-2-yl)pyrrolidin-3-yl)-3-(3-ethoxv-4-methyl-1-phenyl-1H-pyrazol-5-yl)urea] had a pIC50 above 7.00.

`CC[C@@H](O)COc1nn(-c2ccccc2)c(NC(=O)N[C@@H]2CN(CCOC)C[C@H]2c2cc(F)cc(F)c2)c1C` [Example 378, 1-((3S,4R)-4-(3,5-difluorophenyl)-1-(2-methoxyethyl)pyrrolidin-3-yl)-3-(3-((R)-2-hydroxybutoxy)-4-methyl-1-phenyl-1H-pyrazol-5-yl)urea]: the pIC50 was above 7.00.

The compound `CCOc1nn(-c2cnccn2)c(NC(=O)N[C@@H]2CN(CCOC)C[C@H]2c2ccc(F)c(F)c2)c1C` [Example 394, 1-((3S,4R)-4-(3,4-difluorophenyl)-1-(2-methoxyethyl)pyrrolidin-3-yl)-3-(3-ethoxy-4-methyl-1-(pyrazin-2-yl)-1H-pyrazol-5-yl)urea] had a pIC50 of 6.00 to 7.00.

Compound `COCCN1C[C@@H](NC(=O)Nc2c(-c3ccccc3)nn(C(C)C)c2C)[C@H](c2ccc(F)c(F)c2)C1` [Example 641, 1-((3S,4R)-4-(3,4-difluorophenyl)-1-(2-methoxyethyl)pyrrolidin-3-yl)-3-(1-isopropyl-5-methyl-3-phenyl-1H-pyrazol-4-yl)urea] gave a pIC50 of 6.00 to 7.00.

`COCCN1C[C@@H](NC(=O)Nc2c(C)c(CCO)nn2-c2ccccc2)[C@H](c2ccc(F)cc2)C1` [Example 287, 1-((3S,4R)-4-(4-fluorophenyl)-1-(2-methoxyethyl)pyrrolidin-3-yl)-3-(3-(2-hydroxyethyl)-4-methyl-1-phenyl-1H-pyrazol-5-yl)urea] gave a pIC50 above 7.00.

Regarding `COCCN1C[C@@H](NC(=O)Nc2c(Br)c(C3CCOCC3)nn2-c2ccccc2)[C@H](c2ccc(F)cc2)C1` [Example 576, 1-(4-bromo-1-phenyl-3-(tetrahydro-2H-pyran-4-yl)-1H-pyrazol-5-yl)-3-((3S,4R)-4-(4-fluorophenyl)-1-(2-methoxyethyl)pyrrolidin-3-yl)urea], the pIC50 is above 7.00.

Regarding `COCCN1C[C@@H](NC(=O)Nc2cc(C)nn2-c2ccccc2)[C@H](c2cc(F)cc(F)c2)C1` [Example 86, 1-((3S,4R)-4-(3,5-difluoro-phenyl)-1-(2-methoxyethyl)pyrrolidin-3-yl)-3-(3-methyl-1-phenyl-1H-pyrazol-5-yl)urea], the pIC50 was above 7.00.

On to `COCCN1C[C@@H](NC(=O)Nc2c(C)c(-c3cnn(C(=O)C4CC4)c3)nn2-c2ccccc2)[C@H](c2ccc(F)c(F)c2)C1` [Example 501, 1-(1′-(cyclopropanecarbonyl)-4-methyl-1-phenyl-1H,1′H-[3,4′-bipyrazol]-5-yl)-3-((3S,4R)-4-(3,4-difluorophenyl)-1-(2-methoxyethyl)pyrrolidin-3-yl)urea], for which the negative-log IC50 (pIC50) was above 7.00.

The compound `CNC(=O)c1nn(-c2ccccc2)c(NC(=O)N[C@@H]2CN(CCOC)C[C@H]2c2ccc(F)c(F)c2)c1Br` [Example 554, 4-bromo-5-(3-((3S,4R)-4-(3,4-difluorophenyl)-1-(2-methoxyethyl)pyrrolidin-3-yl)ureido)-N-methyl-1-phenyl-1H-pyrazole-3-carboxamide] gave a negative-log IC50 (pIC50) above 7.00.

Compound `COCCN1C[C@@H](NC(=O)Nc2cc(-c3cccc(OC)c3)nn2C)[C@H](c2ccc(F)c(F)c2)C1` [Example 105, 1-((3S,4R)-4-(3,4-difluorophenyl)-1-(2-methoxyethyl)pyrrolidin-3-yl)-3-(3-(3-methoxy-phenyl)-1-methyl-1H-pyrazol-5-yl)urea] had a negative-log IC50 (pIC50) above 7.00.

Turning to `COCCN1C[C@@H](NC(=O)Nc2c(Cl)c(-c3ccccc3)nn2-c2ccccc2)[C@H](c2cncc(F)c2)C1` (relative stereo) [Example 436, 1-(4-chloro-1,3-diphenyl-1H-pyrazol-5-yl)-3-(trans-4-(5-fluoropyridin-3-yl)-1-(2-methoxyethyl)pyrrolidin-3-yl)urea], the pIC50 was above 7.00.

`NC(=O)CN1C[C@@H](NC(=O)Nc2c3c(nn2-c2ccccc2)CCC3)[C@H](c2ccccc2)C1` [Example 190, 2-((3R,4S)-3-phenyl-4-(3-(2-phenyl-2,4,5,6-tetrahydrocyclopenta[c]pyrazol-3-yl)ureido)pyrrolidin-1-yl)acetamide] gave a negative-log IC50 (pIC50) of 5.00 to 6.00.

In the case of `CCc1c(OCC(C)(C)O)nn(-c2ccccc2)c1NC(=O)N[C@@H]1CN(CCOC)C[C@H]1c1ccc(F)c(F)c1` [Example 542, 1-((3S,4R)-4-(3,4-difluorophenyvl)-1-(2-methoxyethyl)pyrrolidin-3-yl)-3-(4-ethyl-3-(2-hydroxy-2-methylpropoxy)-1-phenyl-1H-pyrazol-5-yl)urea], the negative-log IC50 (pIC50) is above 7.00.

In turn, `COCCN1C[C@@H](NC(=O)Nc2c(C#N)c(OC)nn2-c2ccccc2)[C@H](c2ccc(F)c(F)c2)C1` [Example 615, 1-(4-cyano-3-methoxy-1-phenyl-1H-pyrazol-5-yl)-3-((3S,4R)-4-(3,4-difluorophenyl)-1-(2-methoxyethyl)pyrrolidin-3-yl)urea] gave a pIC50 above 7.00.

`COCCN1C[C@@H](NC(=O)Nc2c3c(nn2-c2ccccc2)CSC3)[C@H](c2ccc(F)c(F)c2)C1` [Example 91, 1-((3S,4R)-4-(3,4-difluoro-phenyl)-1-(2-methoxyethyl)pyrrolidin-3-yl)-3-(2-phenyl-4,6-dihydro-2H-thieno[3,4-c]pyrazol-3-yl) urea]: the pIC50 was above 7.00.

Regarding `COCCN1C[C@@H](NC(=O)Nc2c(C)c(Oc3cnccn3)nn2-c2ccccc2)[C@H](c2ccc(F)cc2)C1` [Example 603, 1-((3S,4R)-4-(4-fluorophenyl)-1-(2-methoxyethyl)pyrrolidin-3-yl)-3-(4-methyl-1-phenyl-3-(pyrazin-2-yloxy)-1H-pyrazol-5-yl)urea], the negative logarithm of the IC50 (pIC50) is above 7.00.

The compound `COCCN1C[C@@H](NC(=O)Nc2c(C)c(-c3cncc(F)c3)nn2-c2cccnc2)[C@H](c2ccc(F)c(F)c2)C1` [Example 490, 1-((3S,4R)-4-(3,4-difluorophenyl)-1-(2-methoxyethyl)pyrrolidin-3-yl)-3-(3-(5-fluoropyridin-3-yl)-4-methyl-1-(pyridin-3-yl)-1H-pyrazol-5-yl)urea] showed a pIC50 above 7.00.

In turn, `Cc1c(Br)nn(-c2ccccc2)c1NC(=O)N[C@H]1CN(CC(F)(F)F)C[C@@H]1c1ccccc1` [Example 520, 1-(3-bromo-4-methyl-1-phenyl-1H-pyrazol-5-yl)-3-((3R,4S)-4-phenyl-1-(2,2,2-trifluoroethyl)pyrrolidin-3-yl)urea] gave a pIC50 above 7.00.

The compound `CCOc1nn(-c2ccccc2)c(NC(=O)N[C@@H]2CN(CC(O)C(F)(F)F)C[C@H]2c2ccc(F)c(F)c2)c1C` (stereo partly drawn) [Example 469, 1-((3S,4R)-4-(3,4-difluorophenyl)-1-(3,3,3-trifluoro-2-hydroxypropyl)pyrrolidin-3-yl)-3-(3-ethoxy-4-methyl-1-phenyl-1H-pyrazol-5-yl)urea] gave a pIC50 of 5.00 to 6.00.

As for `COCCN1C[C@@H](NC(=O)Nc2c3c(nn2C2CCCCC2)CCC3)[C@H](c2ccc(F)c(F)c2)C1` [Example 150, 1-(2-cyclohexyl-2,4,5,6-tetrahydrocyclopenta [c]pyrazol-3-yl)-3-((3S,4R)-4-(3,4-difluorophenyl)-1-(2-methoxyethyl)pyrrolidin-3-yl)urea], the negative logarithm of the IC50 (pIC50) is above 7.00.

Consider `COCCN1C[C@@H](NC(=O)Nc2c3c(nn2-c2ccccc2)CCC3)[C@](F)(c2ccccc2)C1` [Example 181, 1-((3R,4S)-4-fluoro-1-(2-methoxyethyl)-4-phenylpyrrolidin-3-yl)-3-(2-phenyl-2,4,5,6-tetrahydrocyclopenta[c]pyrazol-3-yl)urea], for which the negative logarithm of the IC50 (pIC50) is 6.00 to 7.00.

As to `COCCc1nn(-c2ccccc2)c(NC(=O)N[C@@H]2CN(CCOC)C[C@H]2c2ccc(F)c(F)c2)c1C` [Example 134, 1-((3S,4R)-4-(3,4-difluorophenyl)-1-(2-methoxyethyl)pyrrolidin-3-yl)-3-(3-(2-methoxy-ethyl)-4-methyl-1-phenyl-1H-pyrazol-5-yl)urea], the negative logarithm of the IC50 (pIC50) was above 7.00.

`COCCN1C[C@@H](NC(=O)Nc2c(C)c(-c3cnn(C)c3)nn2-c2ccccc2)[C@H](c2cc(F)c(F)c(F)c2)C1` [Example 443, 1-(1′,4-dimethyl-1-phenyl-1H, 1′H-[3,4′-bipyrazol]-5-yl)-3-((3S,4R)-4-(3,4,5-trifluorophenyl)-1-(2-methoxyethyl)pyrrolidin-3-yl)urea] gave a pIC50 above 7.00.

`COCCN1C[C@@H](NC(=O)Nc2c3c(nn2-c2ccccc2)COC3)[C@H](c2ccc(F)c(F)c2)C1` [Example 90, 1-((3S,4R)-4-(3,4-difluoro-phenyl)-1-(2-methoxyethyl)pyrrolidin-3-yl)-3-(2-phenyl-4,6-dihydro-2H-furo[3,4-c]pyrazol-3-yl) urea] showed a negative-log IC50 (pIC50) above 7.00.

In the case of `COCCN1C[C@@H](NC(=O)Nc2c(C)c(C(C)(C)CO)nn2-c2ccccc2)[C@H](c2ccc(F)c(F)c2)C1` [Example 118, 1-((3S,4R)-4-(3,4-difluorophenyl)-1-(2-methoxyethyl)pyrrolidin-3-yl)-3-(3-(1-hydroxy-2-methylpropan-2-yl)-4-methyl-1-phenyl-1H-pyrazol-5-yl)urea], the pIC50 is above 7.00.

`COCCN1C[C@@H](NC(=O)Nc2c(Cl)c(-c3ccccc3)nn2-c2ccccc2)[C@H](c2cc(F)cc(F)c2)C1` [Example 426, 1-(4-chloro-1,3-diphenyl-1H-pyrazol-5-yl)-3-((3S,4R)-4-(3,5-difluorophenyl)-1-(2-methoxyethyl)pyrrolidin-3-yl)urea] had a negative-log IC50 (pIC50) above 7.00.

`COCCN1C[C@@H](NC(=O)Nc2c(Cl)c(C[C@@H](C)O)nn2-c2ccccc2)[C@H](c2ccc(F)c(F)c2)C1` [Example 413, 1-(4-chloro-3-((R)-2-hydroxypropyl)-1-phenyl-1H-pyrazo1-5-yl)-3-((3S,4R)-4-(3,4-difluorophenyl)-1-(2-methoxyethyl)pyrrolidin-3-yl)urea] had a pIC50 above 7.00.
